From patent publication US11274090B2, “P300/CBP HAT inhibitors” (Constellation Pharmaceuticals, Inc., priority 2018, dated 2022)

Target: p300 HAT domain (residues 1287-1666) (Homo sapiens (Human), UniProt Q09472)
Assay: p300 HAT SPA assay (scintillation proximity assay, acetylation of biotinylated H3(1-21) peptide)
Format: biochemical
Conditions: average of at least 2 replicate titrations
Outline: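 Purified p300 HAT domain reaction transferred to streptavidin plates to capture biotinylated H3(1-21) peptide, incubated 1.5 hr at RT, and read by scintillation proximity. IC50 values derived from concentration-response data.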

Sequence of p300 HAT domain (residues 1287-1666) (Q09472 1287-1666): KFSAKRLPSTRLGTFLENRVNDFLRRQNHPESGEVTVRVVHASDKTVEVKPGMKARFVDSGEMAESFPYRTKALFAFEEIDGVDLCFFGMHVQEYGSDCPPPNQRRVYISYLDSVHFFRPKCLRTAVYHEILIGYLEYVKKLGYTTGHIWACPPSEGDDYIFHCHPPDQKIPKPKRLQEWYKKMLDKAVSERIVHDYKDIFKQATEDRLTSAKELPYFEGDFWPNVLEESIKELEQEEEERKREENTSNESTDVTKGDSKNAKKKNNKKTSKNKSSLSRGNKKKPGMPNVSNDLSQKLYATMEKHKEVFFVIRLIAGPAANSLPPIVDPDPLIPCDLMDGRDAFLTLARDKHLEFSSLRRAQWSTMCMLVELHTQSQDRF

SMILES | IC50 [nM]
Cn1cc(-c2ccc(NC(=O)[C@@H](NCCc3ccc(Cl)cc3)c3ccccc3)cc2)cn1 (single isomer, unassigned) [5 Isomer 2] | > 5000
CC(CNC(C(=O)Nc1ccc(-c2cnn(C(C)(C)C)c2)cn1)c1ccccc1)c1ccc(C#N)cc1 (single isomer, unassigned) [54 Isomer 2] | 23.9
COc1ccc(C(NCCc2ccc(C#N)cc2)C(=O)Nc2ccc(-c3cnn(C)c3)cn2)cc1 (single isomer, unassigned) [63 Isomer 1] | 86
Cn1cc(-c2ccc(NC(=O)C(NCCc3ccc(C#N)cc3)c3ccc(C(F)(F)F)cc3)nc2)cn1 (single isomer, unassigned) [120 Isomer 1] | > 2000
CC1CN(C)C(=O)CN1c1ccc(NC(=O)C(NC[C@@H](C)c2ccc(C#N)cc2)c2ccccc2)nc1 (single isomer, unassigned) [125 Isomer 3] | 17.4
CC(CNC(C(=O)Nc1ccc(N2CCN(C)C(=O)C2)cn1)c1ccccc1)c1ccc(C#N)cc1 (single isomer, unassigned) [101 Isomer 3] | 355
COc1cc(-c2cnn(C)c2)ccc1NC(=O)C(NCCc1ccc(C#N)cc1)c1ccccc1 (single isomer, unassigned) [24 Isomer 1] | > 5000
CO[C@H]1CCN(c2ccc(NC(=O)C(NCC(C)c3ccc(C#N)cc3)c3ccccc3)nc2)C1 (single isomer, unassigned) [93 Isomer 1] | 412
COc1ccccc1C(NCCc1ccc(C#N)cc1)C(=O)Nc1ccc(-c2cnn(C)c2)cn1 (single isomer, unassigned) [87 Isomer 2] | > 2000
CC(CNC(C(=O)Nc1ccc(N2CCN(C)S2(=O)=O)cn1)c1ccccc1)c1ccc(C#N)cc1 (single isomer, unassigned) [108 Isomer 2] | 23.7
N#Cc1ccc(CCNC(C(=O)Nc2ccc(N3CC4(COC4)C3)cn2)c2ccccc2)cc1 (single isomer, unassigned) [80 Isomer 1] | 201
Cn1cc(-c2ccc(NC(=O)C(NCCn3cc(C#N)cn3)c3ccccc3)nc2)cn1 (single isomer, unassigned) [144 Isomer 1] | > 2000
Cn1cc(-c2ccc(NC(=O)C(NCCc3ccc(C#N)cc3)c3ccc(C#N)cc3)nc2)cn1 (single isomer, unassigned) [119 Isomer 2] | 1590
CC(CNC(C(=O)Nc1ccc(-c2cn[nH]c2)cn1)c1ccccc1)c1ccc(C#N)cc1 (single isomer, unassigned) [104 Isomer 1] | 1370
Cc1nnc2n1CCN(c1ccc(NC(=O)C(NCCc3ccc(C#N)cc3)c3ccccc3)nc1)C2 (single isomer, unassigned) [60 Isomer 2] | > 2000
C[C@H](CNC(C(=O)Nc1ccc(-c2cnn(C)c2)cn1)c1cncc(F)c1)c1ccc(C#N)cc1 (single isomer, unassigned) [129 Isomer 1] | 75.4
CCCCCCc1ccc(C(NCCc2ccc(C#N)cc2)C(=O)Nc2ccc(-c3cnn(C)c3)cn2)cc1 (single isomer, unassigned) [121 racemic] | > 2000
Cc1nc(NC(=O)C(NCC(C)c2ccc(C#N)cc2)c2ccccc2)ccc1-c1cnn(C)c1 (single isomer, unassigned) [39 Isomer 4] | 304
Cn1cc(-c2ccc(NC(=O)C(NCCc3ccc(C#N)cc3)c3cccc(Cl)c3)nc2)cn1 (single isomer, unassigned) [79 Isomer 2] | 97.7
Cn1cc(-c2ccc(NC(=O)C(NCCc3ccc(C#N)c(F)c3)c3ccccc3)nc2)cn1 (single isomer, unassigned) [85 Isomer 1] | 31.9
N#Cc1ccc(CCNC(C(=O)Nc2ccc(-c3cccnn3)cc2)c2ccccc2)cc1 (single isomer, unassigned) [12 Isomer 1] | > 5000

SMILES | IC50 [nM]
CN1CCN(c2ccc(NC(=O)C(NCCc3ccc(C#N)cc3)c3ccccc3)nc2)CC1 (single isomer, unassigned) [49 Isomer 2] | > 5000
Cn1cc(-c2ccc(NC(=O)C(NCCc3ccc(C#N)cc3C(F)(F)F)c3ccccc3)nc2)cn1 (single isomer, unassigned) [95 Isomer 2] | 1010
CC(CNC(C(=O)Nc1ccc(-c2cnn(C)c2)cn1)c1ccccc1)c1ccc(C#N)c(F)c1 (single isomer, unassigned) [91 Isomer 3] | 1020
CN1CCN(c2ccc(NC(=O)C(NCCc3ccc(C#N)cc3)c3ccccc3)nc2)CCC1=O (single isomer, unassigned) [71 Isomer 2] | > 2000
CO[C@@H]1CCN(c2ccc(NC(=O)C(NCC(C)c3ccc(C#N)cc3)c3ccccc3)nc2)C1 (single isomer, unassigned) [92 Isomer 1] | 881
CC(CNC(C(=O)Nc1ccc(N2CCN(C)S2(=O)=O)cn1)c1ccccc1)c1ccc(C#N)cc1 (single isomer, unassigned) [108 Isomer 1] | > 2000
CC(CNC(C(=O)Nc1ccc(-c2cnn(C)n2)cn1)c1ccccc1)c1ccc(C#N)cc1 (single isomer, unassigned) [98 Isomer 1] | 571
N#Cc1ccc(CCNC(C(=O)Nc2ccc(N3CCCC3)cn2)c2ccccc2)cc1 (single isomer, unassigned) [37 Isomer 2] | 3730
CC(CNC(C(=O)Nc1ccc(-c2cn(C)nn2)cn1)c1ccccc1)c1ccc(C#N)cc1 (single isomer, unassigned) [100 Isomer 4] | > 2000
Cc1n[nH]c(C)c1-c1ccc(NC(=O)C(NC[C@@H](C)c2ccc(C#N)cc2)c2ccccc2)nc1 (single isomer, unassigned) [133 Isomer 1] | 1230
Cn1cc(-c2ccc(NC(=O)C(NCCc3ccc(C#N)cn3)c3ccccc3)nc2)cn1 (single isomer, unassigned) [142 Isomer 2] | 210
C[C@H](CNC(C(=O)Nc1ccc(-c2ccc(=O)n(C)n2)cn1)c1ccccc1)c1ccc(C#N)cc1 (single isomer, unassigned) [134 Isomer 1] | > 2000
Cn1cc(-c2ccc(NC(=O)C(NCCc3ccc(F)cc3)c3ccccc3)nc2)cn1 (single isomer, unassigned) [58 Isomer 2] | > 5000
C[C@H](CNC(C(=O)Nc1ccc(-c2cnn(C)c2)cn1)c1cncc(F)c1)c1ccc(C#N)cc1 (single isomer, unassigned) [129 Isomer 2] | 20.2
Cn1cc(-c2ccc(NC(=O)[C@@H](NCCc3ccc(C#N)cc3)c3ccccc3)cc2)cn1 (single isomer, unassigned) [1 Isomer 1] | 4990
Cc1cc(C#N)ccc1CCNC(C(=O)Nc1ccc(-c2cnn(C)c2)cn1)c1ccccc1 (single isomer, unassigned) [41 Isomer 1] | 10.3
CC(CNC(C(=O)Nc1ccc(-n2cnc(C(C)(C)C)c2)cn1)c1ccccc1)c1ccc(C#N)cc1 (single isomer, unassigned) [59 Isomer 4] | 39.3
CN1CCN(c2ccc(NC(=O)[C@H](NCCc3ccc(C#N)cc3)c3ccccc3)cc2)CC1 (single isomer, unassigned; isomer 2) [18 Isomer 2] | > 5000
CC(CNC(C(=O)Nc1ccc(-c2cnn(C)c2)cn1)c1ccccc1)c1ccc(C#N)c(F)c1 (single isomer, unassigned) [91 Isomer 4] | 401
CC1C(=O)N(C)CCN1c1ccc(NC(=O)C(NC[C@@H](C)c2ccc(C#N)cc2)c2ccccc2)nc1 (single isomer, unassigned) [126 Isomer 3] | > 2000
